A word on the IC50: it is the midpoint of a concentration-inhibition curve. Broadly, the AC50 is the midpoint of the concentration-response curve, whichever way the signal moves. For orientation: Kd means the free concentration of one partner at which half of the binding sites on the other are occupied at equilibrium, for simple one-to-one binding. Low values mean tighter binding, high ones weaker binding.

Assay [1] deals with colorectal carcinoma cell line HT29. Put plainly: Cell viability assay, HT29. In kind it is cell-based. Conditions: Homo sapiens, HT-29; HT29, 72 hours from plating (48 hours from compound administration). The method, then:
(§1) Cell viability assays were conducted against colorectal carcinoma cell line HT29. Cells were plated in wells and at 24 hours after plating, compounds were added to determine their effect on cell viability at various dosages. After 48 hours from compound administration, the cell viability was determined and the IC50 values were calculated. […] FIG. 4B illustrates the results of another cell viability measurement and IC50 value for Compound 1 assessed by ATP abundance on HT29 at 5 days.

For assay [2], the target named is GST-tagged full-length human CK1α (Homo sapiens (Human), UniProt P48729). Description: Kinase enzymatic assay, mobility shift on LabChip system (AC50). In kind it is biochemical. Conditions: mean AC50; 5 μM ATP; 1 μM Profiler Pro FL-Peptide 16 substrate. How it is done: (§2) Enzymatic assays were performed using a mobility shift assay on the LabChip system. Purified kinase protein was incubated with ATP, substrate, and assay buffer (20 mM Hepes—pH 7.5; 5 mM MgCl2, and 0.01% Triton X-100). The assay reaction was initiated with 5 μM ATP and with each compound present. Compounds were tested at the KM,ATP for the protein target (GST-tagged full-length human CK1α, available from Carna Biosciences, Japan) or over a range of ATP concentrations between 5 μM and 9 μM. […] AC50 values were determined using phosphorylated and unphosphorylated substrates.

The target of a further assay is protein kinase A (PKA). The conditions noted are these: range stated jointly for PKA and insulin receptor kinase; cited from earlier work.
The target of a further assay is insulin receptor kinase (Homo sapiens (Human), UniProt P06213). The conditions noted are these: range stated jointly for PKA and insulin receptor kinase; cited from earlier work.
Assay [3] concerns the target T1, CSNK1A1 (Homo sapiens (Human), UniProt P48729). Description: Kinase enzymatic IC50 (Carna Biosciences mobility shift assay). In kind it is biochemical. The method, then:
as §2

A further assay deals with HT-29. Description: Cell viability by ATP abundance at 5 days (Cell Titer Glo). In kind it is cell-based. The method, then: In addition to its role as a target in hematologic malignancies, CSNK1A1 expression is also essential to certain epithelial cancer cell lines. […] Results from each independent RNA interference construct were summarized into a single gene-level score, and the colorectal distribution of sensitivities was evaluated against the other lineages by the Mann-Whitney test as shown in FIG. 4A. […] Cell viability was assessed by ATP abundance at 5 days using the Cell Titer Glo assay.
as §1

The target of assay [4] is T1, CSNK1A1. Put plainly: Kinomescan competition binding assay, confirmatory Kd. The text has this:
The Kinomescan assay is a site-directed small molecule competition binding assay to quantitatively measure interactions between test compounds and more than 450 kinase assays. The assay employs DNA-tagged kinase proteins and a bead-immobilized kinase ligand. […] The assay result is detected using a multiplex quantitative PCR approach.

Assay [5] relates to more than 450 kinase assays. Description: Kinome-wide profiling using the Kinomescan assay. In kind it is binding. The text has this:
(§3) The Kinomescan assay is a site-directed small molecule competition binding assay to quantitatively measure interactions between test compounds and more than 450 kinase assays. The assay employs DNA-tagged kinase proteins and a bead-immobilized kinase ligand. Active test compounds compete with the immobilized ligand and decrease the amount of bead-bound kinase. The assay result is detected using a multiplex quantitative PCR approach.

Another assay deals with CSNK1D (Homo sapiens (Human), UniProt P48730). Put plainly: Kinomescan competition binding assay, confirmatory Kd. The conditions noted are these: confirmatory testing.
From the text: as §3

The mark [6] stands for this setting: Table 1, CSNK1A1 inhibitors, read-out: IC50.

Like-named read-outs stand apart in the source and are kept apart here.

GST-tagged full-length human CK1α, sequence (P48729 whole entry): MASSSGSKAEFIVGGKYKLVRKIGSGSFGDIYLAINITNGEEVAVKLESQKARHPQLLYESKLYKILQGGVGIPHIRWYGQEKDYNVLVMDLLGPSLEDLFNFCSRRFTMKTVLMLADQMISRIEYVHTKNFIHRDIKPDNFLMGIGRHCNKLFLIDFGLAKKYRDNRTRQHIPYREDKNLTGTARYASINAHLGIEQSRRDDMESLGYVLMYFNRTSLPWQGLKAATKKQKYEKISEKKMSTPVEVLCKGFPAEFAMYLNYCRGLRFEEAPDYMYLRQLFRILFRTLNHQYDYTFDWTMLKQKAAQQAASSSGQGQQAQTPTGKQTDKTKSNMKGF
T1 sequence (P48729 whole entry): as above
insulin receptor kinase, sequence (P06213 28-1382): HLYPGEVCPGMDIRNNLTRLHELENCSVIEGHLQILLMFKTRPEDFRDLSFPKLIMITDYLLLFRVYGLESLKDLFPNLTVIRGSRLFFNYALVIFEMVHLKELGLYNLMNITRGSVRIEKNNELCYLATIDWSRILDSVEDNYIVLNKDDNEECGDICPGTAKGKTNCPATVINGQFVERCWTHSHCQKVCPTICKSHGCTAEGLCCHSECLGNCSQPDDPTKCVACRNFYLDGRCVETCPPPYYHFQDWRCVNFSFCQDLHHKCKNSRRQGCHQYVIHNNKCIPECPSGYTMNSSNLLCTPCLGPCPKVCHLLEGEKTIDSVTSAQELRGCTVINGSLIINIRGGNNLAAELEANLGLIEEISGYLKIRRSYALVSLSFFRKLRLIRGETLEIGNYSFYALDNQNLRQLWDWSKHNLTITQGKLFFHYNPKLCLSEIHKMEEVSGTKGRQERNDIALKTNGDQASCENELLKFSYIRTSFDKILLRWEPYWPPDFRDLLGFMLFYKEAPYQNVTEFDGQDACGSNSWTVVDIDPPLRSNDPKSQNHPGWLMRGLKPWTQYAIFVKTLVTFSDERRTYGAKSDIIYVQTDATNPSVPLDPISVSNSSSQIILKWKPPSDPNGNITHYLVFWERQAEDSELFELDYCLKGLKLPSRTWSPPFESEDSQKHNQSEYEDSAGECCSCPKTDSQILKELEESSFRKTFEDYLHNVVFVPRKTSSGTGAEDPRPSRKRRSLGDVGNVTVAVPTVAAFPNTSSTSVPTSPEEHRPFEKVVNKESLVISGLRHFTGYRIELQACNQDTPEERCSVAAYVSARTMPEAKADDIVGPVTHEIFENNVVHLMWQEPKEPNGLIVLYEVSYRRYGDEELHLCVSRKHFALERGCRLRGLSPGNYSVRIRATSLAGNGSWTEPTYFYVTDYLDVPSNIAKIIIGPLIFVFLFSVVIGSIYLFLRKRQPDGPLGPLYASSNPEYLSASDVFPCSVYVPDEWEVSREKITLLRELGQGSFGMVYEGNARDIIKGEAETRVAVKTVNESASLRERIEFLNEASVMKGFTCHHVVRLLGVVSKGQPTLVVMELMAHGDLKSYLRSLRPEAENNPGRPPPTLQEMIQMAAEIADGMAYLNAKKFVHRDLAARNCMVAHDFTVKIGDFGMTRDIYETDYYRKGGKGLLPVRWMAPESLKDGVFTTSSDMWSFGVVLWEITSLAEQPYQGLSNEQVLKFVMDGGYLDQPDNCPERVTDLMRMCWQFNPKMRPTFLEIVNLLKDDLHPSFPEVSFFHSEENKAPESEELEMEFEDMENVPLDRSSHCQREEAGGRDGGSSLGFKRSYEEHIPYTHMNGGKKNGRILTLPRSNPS
CSNK1D, sequence (P48730 whole entry): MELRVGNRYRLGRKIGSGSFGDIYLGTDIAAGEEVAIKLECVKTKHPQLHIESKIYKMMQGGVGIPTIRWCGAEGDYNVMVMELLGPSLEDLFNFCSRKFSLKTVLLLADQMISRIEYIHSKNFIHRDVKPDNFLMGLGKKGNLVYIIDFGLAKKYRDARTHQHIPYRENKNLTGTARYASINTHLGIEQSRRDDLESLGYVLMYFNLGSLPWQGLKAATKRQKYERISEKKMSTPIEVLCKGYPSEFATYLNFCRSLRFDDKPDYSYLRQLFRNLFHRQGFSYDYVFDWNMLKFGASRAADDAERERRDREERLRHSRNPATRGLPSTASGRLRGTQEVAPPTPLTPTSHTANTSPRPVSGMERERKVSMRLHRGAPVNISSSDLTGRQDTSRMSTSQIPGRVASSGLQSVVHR

As for `CCC(CC)COC(=O)C(C#N)c1nc2ccccc2nc1N1CCNC(C)(C)C1` (stereo not shown), the IC50 in [1] is 2.13 µM. Besides, in assay [2], the AC50 was found to be 0.159 µM.

With `N#CC(C(=O)OCC1CCCCC1)c1nc2ccccc2nc1N1CCNCC1` (stereo not shown), the IC50 in assay [1] amounted to 3.78 µM. The AC50 in assay [2] is 0.02 µM.

`N#C/C(C(=O)OCC1CCCCC1)=C1/Nc2ccc(-c3ccccc3F)cc2N=C1N1CCNCC1` showed an IC50 in assay [1] of 1.9 µM. In addition, in [2], the AC50 stood at 0.043 µM.

`N#C/C(C(=O)OCC1CCCCC1)=C1/Nc2ccc(-c3ccccc3O)cc2N=C1N1CCNCC1` came in with an IC50 in assay [1] of 0.837 µM. In addition, in [2], the half-maximal activity concentration (AC50) was 0.043 µM.

`N#C/C(C(=O)OCC1CCCCC1)=C1/Nc2ccc(-c3ccc(O)cc3)cc2N=C1N1CCNCC1` displayed an IC50 in [1] of 0.472 µM. Moreover, the concentration at half-maximal activity (AC50) in [2] was found to be 0.013 µM.

In assay [1], `N#C/C(C(=O)OCC1CCCCC1)=C1/Nc2ccc(-c3ccc(F)cc3)cc2N=C1N1CCNCC1` returned a concentration for half-maximal inhibition (IC50) of 1.78 µM. For the same compound, the AC50 in assay [2] amounted to 0.074 µM.

Consider `Nc1ncnc2c1c(I)cn2[C@@H]1O[C@H](CO)[C@@H](O)[C@H]1O` [5-iodotubercidin, 5-Iodo-7-β-D-ribofuranosyl-7H-pyrrolo[2,3-d]pyrimidin-4-amine, reference compound], for which the IC50 on protein kinase A (PKA) was 0.4 to 28 µM; at insulin receptor kinase, 0.4 to 28 µM; on CSNK1A1 [3] (setting [6]) it was 0.287 µM; at CSNK1A1 [3] (known inhibitors, background text (rounded Table 1 values), read-out: IC50 against CSNK1A1), 0.29 µM.

Regarding `CCN1CCN(c2nc3ccccc3nc2C(C#N)C(=O)OC2CCCCC2)CC1` (stereo not shown) [compound 1, cyclohexyl 2-cyano-2-(3-(4-ethylpiperazin-1-yl)quinoxalin-2-yl)acetate], in the assay with HT-29, the “cell viability of HT-29” value is “inhibited”. The Kd at CSNK1A1 [4] came to 1.7 µM; on CSNK1D it was 3.2 µM. Moreover, the “binding specificity in kinome-wide profiling” value in assay [5] (450 kinases tested at a single dose of 10 μM) is “remarkable specificity for compound binding to CSNK1A1”. The “number of kinases bound” value in [5] (out of over 400 kinases tested) is reported as “six”. The IC50 on CSNK1A1 [3] was 10.1 µM; at CSNK1A1 [3] (setting [6]), 12.9 µM.

With `CN1CCN(c2nc3ccccc3nc2C(C#N)C(=O)OC2CCCCC2)CC1` (stereo not shown) [drawing 113], the concentration for half-maximal inhibition (IC50) in assay [1] came out at 10000 µM. The AC50 in [2] stood at 3.5 µM.

These data come from patent publication US11633415B2, “Compounds and methods useful for treating or preventing cancers” (priority 2017, dated 2023).
